Assay results as given in paper PMC9530963, “A cathelicidin antimicrobial peptide from Hydrophis cyanocinctus inhibits Zika virus infection by downregulating expression of a viral entry factor” (The Journal of Biological Chemistry, 2022).

What was measured:
ZIKV [1] = experiment: Susceptibility of A549 cells to ZIKV (peptide pretreatment); format: cell-based, ZIKV strain PRVABC59; settings: 1.25, 2.5, and 5 μM, 2 h before ZIKV MOI = 1; 24 h; Western blot
Experimental: (§1) Figure 4 Hc-CATH downregulates AXL in A549 cell.A, schematic diagram of B and C. B, A549 cells were seeded in 24-well plates (5 × 10^4 cells/well) and cultured in DMEM containing 2% FBS. Hc-CATH (1.25, 2.5, and 5 μM) or same volume of PBS (peptide solvent) was added to cells and incubated at 37 °C for 24 h. The level of AXL was tested by Western blot. C, A549 cells were seeded in 8-well cover slip chambers (5 × 10^4 cells/well) and cultured in DMEM containing 2% FBS. Hc-CATH (1.25, 2.5, and 5 μM) or PBS was added to cells and incubated at 37 °C for 24 h. The level of AXL was tested by immunofluorescence staining. The scale bar represents 50 μm. D, schematic diagram of E and G. E and G, A549 cells were seeded in 24-well plates (5 × 10^4 cells/well) and cultured in DMEM containing 2% FBS. Hc-CATH (1.25, 2.5, and 5 μM) or PBS was added to cells and incubated at 37 °C for 2 h. Cells were washed with PBS and incubated with ZIKV (MOI = 1). After incubation at 37 °C for 2 h, cells were washed with PBS and cultured in DMEM containing 2% FBS.
Vero, A549, or U251 cells were incubated with peptide or PBS at 37 °C for 2 h. […]
(§2) The effect of Hc-CATH on AXL was further confirmed in A549 and U251 cells. A549 or U251 cells were incubated with Hc-CATH (1.25, 2.5, and 5 μM) or PBS at 37 °C for 24 h, and the level of AXL was detected by WB and IF, respectively. […]

AXL = AXL level in A549 cells (Western blot, immunofluorescence); format: cell-based, Homo sapiens; settings: 1.25, 2.5, and 5 μM, 24 h, with and without ZIKV challenge
Experimental: as §1
as §2, with “respectively. Upon ZIKV challenge, A549 or U251 cells were incubated with Hc-CATH (1.25, 2.5, and 5 μM) or PBS at 37 °C for 2 h.” for “respectively.”

[2] = cited from earlier work
Source text: Antimicrobial peptides (AMPs), also called host defense peptides, are a group of relatively small cationic peptides. They are an important part of the innate immune system and play an important role in fighting against bacterial infection ([26]). Recently, more and more studies have shown that AMPs can also exert antiviral effects by inhibiting virus adsorption, disrupting virus envelope, and regulating host antiviral immune response ([27], [28], [29]).

ZIKV [3] = experiment: Antiviral activity of Hc-CATH against ZIKV in vitro (peptide present during and after infection); format: cell-based, ZIKV strain PRVABC59
Experimental: Figure 1 Hc-CATH inhibits ZIKV infection in vitro. A, schematic diagram of B–H. B–H, protective effect of Hc-CATH on ZIKV infection in vitro. Vero cells were seeded in 24-well plates (5 × 10^4 cells/well). Cells were infected with ZIKV (MOI = 1), and Hc-CATH (1.25, 2.5, and 5 μM), AC5 (2.5 and 5 μM), LL-37 (2.5 μM), or same volume of PBS (peptide solvent) was added and incubated at 37 °C for 2 h. Then the cells were washed with PBS and transferred with fresh DMEM containing 2% FBS and the same concentration of peptides. After culture at 37 °C for 48 h, image of ZIKV-caused cytopathic effect was taken (B, the scale bar represents 200 μm), the percentage of ZIKV-caused cytopathic effect was quantified by CCK-8 (C), intracellular ZIKV RNA (D), NS3 protein (E, upper panel: immunoblots, lower panel: ratios analyzed by ImageJ), E protein (F, the scale bar represents 50 μm), and extracellular ZIKV titer (G and H) was tested by qPCR, Western blot, immunofluorescence staining, and plaque-forming assay, respectively. The raw data files used in the creation of G are presented in Fig. S3. ∗p < 0.05, ∗∗p < 0.01, ∗∗∗p < 0.001, ns, not significant.
Vero cells were seeded in 24-well plates (5 × 10^4 cells/well). After cells were adhered to plates, cells were incubated with ZIKV (multiplicity of infection [MOI] = 1) in the presence of noncytotoxic concentration of Hc-CATH, AC5 (positive control), LL-37 (positive control), or PBS (solvent of peptide). After incubation at 37 °C for 2 h, the culture media were removed, cells were washed with PBS and transferred with fresh culture media containing 2% FBS, and Hc-CATH, AC5, LL-37, or PBS was supplemented to each well. After incubation at 37 °C for 48 h, cytopathic effect was observed by microscopy, and Cell Counting Kit-8 was applied to determine the percent of cytopathic effect. The percent of cytopathic effect was calculated as (Asham –Atreatment)/Asham × 100 (where Asham represents the absorbance of uninfected cells, Atreatment represents the absorbance of PBS- or peptide-treated cells post ZIKV infection). The intracellular ZIKV RNA, NS3 protein, E protein, and extracellular ZIKV titer were tested by qPCR, WB, IF, and plaque-forming assay, respectively ([28]).

## KFFKRLLKSVRRAVKKFRKKPRLIGLSTLL [Hc-CATH, cathelicidin antimicrobial peptide identified from the sea snake Hydrophis cyanocinctus]
ZIKV [1]
  susceptibility of A549 cells to ZIKV (NS3 protein): decreased the susceptibility
AXL
  level of AXL in A549 cells: effectively decreased the level of AXL
[2]
  cytotoxicity: low cytotoxicity
  stability: high stability
ZIKV [3]; 5 μM, Vero cells, ZIKV MOI = 1, 48 h, Western blot, ImageJ
  reduction of NS3 protein: ~67.4%
ZIKV [3]; 5 μM, Vero cells, ZIKV MOI = 1, 48 h, plaque-forming assay
  reduction of extracellular ZIKV particles: ~71.6%
ZIKV [3]; 5 μM, Vero cells, ZIKV MOI = 1, 48 h, qPCR
  reduction of intracellular ZIKV RNA: ~52.7%
ZIKV [3]; 5 μM, Vero cells, ZIKV MOI = 1, peptide during 2 h infection and 48 h culture, CCK-8
  reduction of ZIKV-caused cytopathic effect: about 70.3%
ZIKV [3]; Vero cells (Fig. 1)
  anti-ZIKV efficacy in vitro compared with positive peptides: weaker than that of AC5 and LL-37
